Assay [1] addresses T1, acetylcholinesterase (AChE) (Homo sapiens, UniProt P22303). The assay is described as follows: DESI-MS label-free acetylcholinesterase inhibition assay, dose-response curves. The class given is biochemical.
In assay [2] the target is T1, acetylcholinesterase (AChE). The assay can be described thus: DESI-MS AChE inhibition, Dixon plot (inhibitor and substrate concentrations varied). The class given is biochemical.
Experimental: For kinetic determinations the reactions were incubated for 50 minutes, with the concentration of substrate held kept between 0.4 to 1 mM, while the concentration of enzyme was set to 180 ng/mL. Note that only concentrations within the calibration range were used. The calibrated result (inset) is used to determine v0 of the reaction. The data shown come from eight instrumental replicates from a single mixture (128 spots), acquired in less than 2.5 minutes.
Further characterization of the inhibitors was achieved by screening simultaneously different concentrations of inhibitor and the substrate in order to obtain the Dixon plot (FIG. 11). […] This Dixon plot required that 24 independent progress curves be determined: duplicate measurements taken on 12 combinations of concentrations of inhibitor (0, 40, 100, 200 nM) and substrate (0.6, 0.8, 1.0 mM). This required the analysis of 3072 spots, carried out in approx. 35 minutes, with simultaneous incubation time of 50 minutes.

The values below come from patent US12130255B2, “High-throughput label-free enzymatic bioassays using DESI-MS” (priority 2020, dated 2024).

T1 sequence (P22303 32-614, species assumed): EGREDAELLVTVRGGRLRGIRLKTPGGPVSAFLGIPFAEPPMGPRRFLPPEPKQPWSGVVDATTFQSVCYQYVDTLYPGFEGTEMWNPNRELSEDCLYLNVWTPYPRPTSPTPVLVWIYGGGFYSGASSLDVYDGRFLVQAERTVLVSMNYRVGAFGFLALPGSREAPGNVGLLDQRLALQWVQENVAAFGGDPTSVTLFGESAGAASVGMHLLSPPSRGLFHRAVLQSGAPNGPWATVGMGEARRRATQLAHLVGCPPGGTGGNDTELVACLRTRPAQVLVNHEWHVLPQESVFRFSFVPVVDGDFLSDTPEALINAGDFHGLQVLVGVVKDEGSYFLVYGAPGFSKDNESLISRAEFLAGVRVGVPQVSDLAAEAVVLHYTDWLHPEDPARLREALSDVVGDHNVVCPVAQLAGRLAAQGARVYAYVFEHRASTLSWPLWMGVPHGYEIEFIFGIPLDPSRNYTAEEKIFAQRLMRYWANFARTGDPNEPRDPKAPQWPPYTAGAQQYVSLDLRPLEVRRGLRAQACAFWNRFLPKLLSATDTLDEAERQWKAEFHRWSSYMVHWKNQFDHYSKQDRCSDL

For the compound `COc1ccc2c3c1O[C@H]1C(=O)CC[C@H]4[C@@H](C2)N(C)CC[C@]314` [hydrocodone], in assay [1], half-maximal inhibition (IC50) was put at 116 µM.

As to `CN(C)C(=O)Oc1cccc([N+](C)(C)C)c1` [neostigmine], in assay [2], the “type of inhibition (intersection of the lines in the Dixon plot)” value is “competitive inhibitor”.

Compound `COc1ccc2c3c1O[C@H]1C(=O)CC[C@@]4(O)[C@@H](C2)N(C)CC[C@]314` [oxycodone] had an IC50 in assay [1] of 0.122 µM. That is a sub-micromolar value.

As usually defined, the IC50 is the point on the concentration scale where inhibition reaches its midpoint. A higher IC50 goes with weaker potency.
